Experimental findings from ChEMBL document CHEMBL1146941, “Synthesis of pyrazinamide Mannich bases and its antitubercular properties” (2006) are described below.

The test system of assay [1] is Mycobacterium tuberculosis. Briefly: Antimycobacterial activity against Mycobacterium tuberculosis. Type of assay: functional.
Assay [2] concerns Vero. Briefly: Cytotoxicity against Vero cells by MTT assay. Type of assay: functional. The conditions noted are these: Chlorocebus sabaeus.
Assay [3] deals with Vero. As to the kind of experiment: Selectivity index (CC50/MIC90). The format is functional.
The subject of assay [4] is Mycobacterium tuberculosis. As to the kind of experiment: Activity against Mycobacterium tuberculosis ATCC 35801 in spleen of CD1 mice at 100 mg/kg. The format is functional.
In assay [5] the test system is Mycobacterium tuberculosis. As to the kind of experiment: Activity against Mycobacterium tuberculosis ATCC 35801 in lungs of CD1 mice at 100 mg/kg. The format is functional, Lung.

Values after ≈ are worked out from the molar mass of the structure shown. A value given as a limit tells only on which side of the number the result lay.

On to `O=C(NCN1CCN(c2ccccn2)CC1)c1cnccn1`, for which the MIC90 (as a rule, an inhibitory concentration at the 90% level, which refers to growth in some studies and to a panel of isolates in others) in assay [1] is 12.5 µg/mL (≈ 41.9 µM).

In assay [1], `O=C(NCN1CCN(c2ccc(C(F)(F)F)cc2)CC1)c1cnccn1` returned an MIC90 of 0.78 µg/mL (≈ 2.13 µM). Besides, in the assay with Vero [2], the CC50 (commonly the concentration giving 50% cytotoxicity) was greater than 62.5 µg/mL. For the same molecule, the Selectivity index with Vero [3] is on record as greater than 80. As for `CN1CCN(CNC(=O)c2cnccn2)CC1`, the MIC90 in assay [1] is 12.5 µg/mL (≈ 53.1 µM). For the same molecule, the results for the Log10 cfu in assay [4] and in assay [5] were 7.18 and 6.02, respectively. In assay [1], `O=C(NCN1CCN(Cc2ccccc2)CC1)c1cnccn1` showed an MIC90 of 6.25 µg/mL (≈ 20.1 µM). `O=C(NCN1CCN(c2cccc(Cl)c2)CC1)c1cnccn1`: the MIC90 in assay [1] was 3.12 µg/mL (≈ 9.4 µM).

`O=C(NCN1CCN(c2ccc(Cl)cc2)CC1)c1cnccn1` returned an MIC90 in assay [1] of 3.12 µg/mL (≈ 9.4 µM). Still for that read-out and setting: the same measure for `COc1ccc(N2CCN(CNC(=O)c3cnccn3)CC2)cc1`: 12.5 µg/mL (≈ 38.2 µM); for `O=C(NCN1CCN(c2ccc([N+](=O)[O-])cc2)CC1)c1cnccn1`: 6.25 µg/mL (≈ 18.3 µM). `COc1cccc(N2CCN(CNC(=O)c3cnccn3)CC2)c1` had an MIC90 in assay [1] of 12.5 µg/mL (≈ 38.2 µM). Compared with the last molecule, the MIC90 is about 2-fold higher. `O=C(NCN1CCN(c2ccccc2)CC1)c1cnccn1` returned an MIC90 in assay [1] of 6.25 µg/mL (≈ 21 µM).

In assay [1], `CCn1cc(C(=O)O)c(=O)c2cc(F)c(N3CCN(CNC(=O)c4cnccn4)CC3)cc21` showed an MIC90 of 1.76 µg/mL (≈ 3.87 µM). Further, in the assay with Vero [2], the CC50 is greater than 62.5 µg/mL. Besides, in the assay with Vero [3], the Selectivity index is greater than 40. For the molecule `O=C(NCN1CCN(c2cc3c(cc2F)c(=O)c(C(=O)O)cn3C2CC2)CC1)c1cnccn1`, the MIC90 in assay [1] is 3.13 µg/mL (≈ 6.71 µM). Besides, the CC50 in the assay with Vero [2] was greater than 62.5 µg/mL. This molecule registered a Selectivity index in the assay with Vero [3] greater than 20. Taken in the same sequence, the figures for `CCn1cc(C(=O)O)c(=O)c2cc(F)c(N3CCN(CNC(=O)c4cnccn4)CC3)c(F)c21` were 0.78 µg/mL (≈ 1.65 µM), greater than 62.5 µg/mL and greater than 80. `O=C(NCN1CCN(c2ncccn2)CC1)c1cnccn1`: in assay [1], the MIC90 was greater than 12.5 µg/mL. In assay [1], `COc1ccccc1N1CCN(CNC(=O)c2cnccn2)CC1` gave an MIC90 of 12.5 µg/mL (≈ 38.2 µM). In the case of `O=C(NCN1CCN(c2ccc(F)cc2)CC1)c1cnccn1`, in assay [1], the MIC90 worked out at 1.76 µg/mL (≈ 5.58 µM). The CC50 in the assay with Vero [2] is greater than 62.5 µg/mL. In the assay on Vero [3], the Selectivity index is greater than 40. In turn, `COc1c(N2CCN(CNC(=O)c3cnccn3)C(C)C2)c(F)cc2c(=O)c(C(=O)O)cn(C3CC3)c12` (stereo unspecified) showed a CC50 with Vero [2] greater than 62.5 µg/mL. Further, the Selectivity index with Vero [3] is listed as greater than 160.

In the case of `NC(=O)c1cnccn1` [PYRAZINAMIDE], the MIC90 in assay [1] was determined as 12.5 µg/mL (≈ 102 µM).
